Results published in ChEMBL document CHEMBL4715881, “ATB-targeted delivery of triptolide prodrugs for safer and more effective pancreatic cancer therapy” (Bioorg Med Chem Lett, 2021).
The source made the active and inactive calls. No cut-off for these calls is given here.

System: not listed separately
Assay: Drug uptake in human ASPC1 cells assessed as Vmax measured at 10 mins
Assay type: ADME, cell-based
Details: aspc1, 10 min

SMILES	Vmax [nmol/mg]
CC(C)[C@H](N)C(=O)O[C@@H]1[C@@]2(C(C)C)O[C@H]2[C@@H]2O[C@]23[C@]12O[C@H]2C[C@H]1C2=C(CC[C@@]13C)C(=O)OC2	4.391
CC(C)[C@]12O[C@H]1[C@@H]1O[C@]13[C@]1(O[C@H]1C[C@H]1C4=C(CC[C@@]13C)C(=O)OC4)[C@@H]2OC(=O)[C@@H](N)Cc1c[nH]c2ccccc12	5.874

System: MIA PaCa-2
Assay: Cytotoxicity against human MIA PaCa-2 cells assessed as reduction in cell viability pretreated with glycine for 30 mins by MTT assay
Assay type: functional, cell-based
Details: not given

SMILES	Activity
CC(C)[C@H](N)C(=O)O[C@@H]1[C@@]2(C(C)C)O[C@H]2[C@@H]2O[C@]23[C@]12O[C@H]2C[C@H]1C2=C(CC[C@@]13C)C(=O)OC2	inactive
CC(C)[C@]12O[C@H]1[C@@H]1O[C@]13[C@]1(O[C@H]1C[C@H]1C4=C(CC[C@@]13C)C(=O)OC4)[C@@H]2OC(=O)[C@@H](N)Cc1c[nH]c2ccccc12	inactive

System: not listed separately
Assay: Drug uptake in human ASPC1 cells in presence of glycine
Assay type: ADME, cell-based
Details: not given

SMILES	Drug uptake
CC(C)[C@H](N)C(=O)O[C@@H]1[C@@]2(C(C)C)O[C@H]2[C@@H]2O[C@]23[C@]12O[C@H]2C[C@H]1C2=C(CC[C@@]13C)C(=O)OC2	Not Active
CC(C)[C@]12O[C@H]1[C@@H]1O[C@]13[C@]1(O[C@H]1C[C@H]1C4=C(CC[C@@]13C)C(=O)OC4)[C@@H]2OC(=O)[C@@H](N)Cc1c[nH]c2ccccc12	Not Active

System: not listed separately
Assay: Stability in rat plasma assessed as half life
Assay type: ADME, cell-free
Details: not given

SMILES	half-life [h]
CC(C)[C@H](N)C(=O)O[C@@H]1[C@@]2(C(C)C)O[C@H]2[C@@H]2O[C@]23[C@]12O[C@H]2C[C@H]1C2=C(CC[C@@]13C)C(=O)OC2	> 10
CC(C)[C@]12O[C@H]1[C@@H]1O[C@]13[C@]1(O[C@H]1C[C@H]1C4=C(CC[C@@]13C)C(=O)OC4)[C@@H]2OC(=O)[C@@H](N)Cc1c[nH]c2ccccc12	> 10

System: not listed separately
Assay: Drug uptake in human HPDE cells
Assay type: ADME, cell-based
Details: not given

SMILES	Drug uptake
CC(C)[C@H](N)C(=O)O[C@@H]1[C@@]2(C(C)C)O[C@H]2[C@@H]2O[C@]23[C@]12O[C@H]2C[C@H]1C2=C(CC[C@@]13C)C(=O)OC2	Not Active
CC(C)[C@]12O[C@H]1[C@@H]1O[C@]13[C@]1(O[C@H]1C[C@H]1C4=C(CC[C@@]13C)C(=O)OC4)[C@@H]2OC(=O)[C@@H](N)Cc1c[nH]c2ccccc12	Not Active

System: not listed separately
Assay: Drug uptake in human MIA PaCa-2 cells assessed as Km
Assay type: ADME, cell-based
Details: not given

SMILES	Km [µM]
CC(C)[C@H](N)C(=O)O[C@@H]1[C@@]2(C(C)C)O[C@H]2[C@@H]2O[C@]23[C@]12O[C@H]2C[C@H]1C2=C(CC[C@@]13C)C(=O)OC2	112
CC(C)[C@]12O[C@H]1[C@@H]1O[C@]13[C@]1(O[C@H]1C[C@H]1C4=C(CC[C@@]13C)C(=O)OC4)[C@@H]2OC(=O)[C@@H](N)Cc1c[nH]c2ccccc12	96

System: not listed separately
Assay: Drug uptake in human MIA PaCa-2 cells assessed as Vmax measured at 10 mins
Assay type: ADME, cell-based
Details: mia paca-2, 10 min

SMILES	Vmax [nmol/mg]
CC(C)[C@H](N)C(=O)O[C@@H]1[C@@]2(C(C)C)O[C@H]2[C@@H]2O[C@]23[C@]12O[C@H]2C[C@H]1C2=C(CC[C@@]13C)C(=O)OC2	4.132
CC(C)[C@]12O[C@H]1[C@@H]1O[C@]13[C@]1(O[C@H]1C[C@H]1C4=C(CC[C@@]13C)C(=O)OC4)[C@@H]2OC(=O)[C@@H](N)Cc1c[nH]c2ccccc12	5.072

System: not listed separately
Assay: Drug uptake in human MIA PaCa-2 cells in presence of glycine
Assay type: ADME, cell-based
Details: not given

SMILES	Drug uptake
CC(C)[C@H](N)C(=O)O[C@@H]1[C@@]2(C(C)C)O[C@H]2[C@@H]2O[C@]23[C@]12O[C@H]2C[C@H]1C2=C(CC[C@@]13C)C(=O)OC2	Not Active
CC(C)[C@]12O[C@H]1[C@@H]1O[C@]13[C@]1(O[C@H]1C[C@H]1C4=C(CC[C@@]13C)C(=O)OC4)[C@@H]2OC(=O)[C@@H](N)Cc1c[nH]c2ccccc12	Not Active

System: not listed separately
Assay: Drug uptake in human ASPC1 cells in presence of alpha-Methyl-D,L-tryptophan
Assay type: ADME, cell-based
Details: not given

SMILES	Drug uptake
CC(C)[C@H](N)C(=O)O[C@@H]1[C@@]2(C(C)C)O[C@H]2[C@@H]2O[C@]23[C@]12O[C@H]2C[C@H]1C2=C(CC[C@@]13C)C(=O)OC2	Not Active
CC(C)[C@]12O[C@H]1[C@@H]1O[C@]13[C@]1(O[C@H]1C[C@H]1C4=C(CC[C@@]13C)C(=O)OC4)[C@@H]2OC(=O)[C@@H](N)Cc1c[nH]c2ccccc12	Not Active

System: not listed separately
Assay: Drug uptake in human MIA PaCa-2 cells in presence of lysine
Assay type: ADME, cell-based
Details: not given

SMILES	Drug uptake
CC(C)[C@H](N)C(=O)O[C@@H]1[C@@]2(C(C)C)O[C@H]2[C@@H]2O[C@]23[C@]12O[C@H]2C[C@H]1C2=C(CC[C@@]13C)C(=O)OC2	Not Active
CC(C)[C@]12O[C@H]1[C@@H]1O[C@]13[C@]1(O[C@H]1C[C@H]1C4=C(CC[C@@]13C)C(=O)OC4)[C@@H]2OC(=O)[C@@H](N)Cc1c[nH]c2ccccc12	Not Active

System: not listed separately
Assay: Drug uptake in human ASPC1 cells assessed as Km
Assay type: ADME, cell-based
Details: not given

SMILES	Km [µM]
CC(C)[C@H](N)C(=O)O[C@@H]1[C@@]2(C(C)C)O[C@H]2[C@@H]2O[C@]23[C@]12O[C@H]2C[C@H]1C2=C(CC[C@@]13C)C(=O)OC2	130
CC(C)[C@]12O[C@H]1[C@@H]1O[C@]13[C@]1(O[C@H]1C[C@H]1C4=C(CC[C@@]13C)C(=O)OC4)[C@@H]2OC(=O)[C@@H](N)Cc1c[nH]c2ccccc12	105

System: not listed separately
Assay: Drug uptake in human ASPC1 cells in presence of glutamate
Assay type: ADME, cell-based
Details: not given

SMILES	Drug uptake
CC(C)[C@H](N)C(=O)O[C@@H]1[C@@]2(C(C)C)O[C@H]2[C@@H]2O[C@]23[C@]12O[C@H]2C[C@H]1C2=C(CC[C@@]13C)C(=O)OC2	Active
CC(C)[C@]12O[C@H]1[C@@H]1O[C@]13[C@]1(O[C@H]1C[C@H]1C4=C(CC[C@@]13C)C(=O)OC4)[C@@H]2OC(=O)[C@@H](N)Cc1c[nH]c2ccccc12	Active

System: not listed separately
Assay: Drug uptake in human MIA PaCa-2 cells in presence of alpha-Methyl-D,L-tryptophan
Assay type: ADME, cell-based
Details: not given

SMILES	Drug uptake
CC(C)[C@H](N)C(=O)O[C@@H]1[C@@]2(C(C)C)O[C@H]2[C@@H]2O[C@]23[C@]12O[C@H]2C[C@H]1C2=C(CC[C@@]13C)C(=O)OC2	Not Active
CC(C)[C@]12O[C@H]1[C@@H]1O[C@]13[C@]1(O[C@H]1C[C@H]1C4=C(CC[C@@]13C)C(=O)OC4)[C@@H]2OC(=O)[C@@H](N)Cc1c[nH]c2ccccc12	Not Active

System: ASPC1
Assay: Cytotoxicity against human ASPC1 cells assessed as reduction in cell viability pretreated with glycine for 30 mins by MTT assay
Assay type: functional, cell-based
Details: not given

SMILES	Activity
CC(C)[C@H](N)C(=O)O[C@@H]1[C@@]2(C(C)C)O[C@H]2[C@@H]2O[C@]23[C@]12O[C@H]2C[C@H]1C2=C(CC[C@@]13C)C(=O)OC2	inactive
CC(C)[C@]12O[C@H]1[C@@H]1O[C@]13[C@]1(O[C@H]1C[C@H]1C4=C(CC[C@@]13C)C(=O)OC4)[C@@H]2OC(=O)[C@@H](N)Cc1c[nH]c2ccccc12	inactive

System: not listed separately
Assay: Drug uptake in human MIA PaCa-2 cells in presence of glutamate
Assay type: ADME, cell-based
Details: not given

SMILES	Drug uptake
CC(C)[C@H](N)C(=O)O[C@@H]1[C@@]2(C(C)C)O[C@H]2[C@@H]2O[C@]23[C@]12O[C@H]2C[C@H]1C2=C(CC[C@@]13C)C(=O)OC2	Active
CC(C)[C@]12O[C@H]1[C@@H]1O[C@]13[C@]1(O[C@H]1C[C@H]1C4=C(CC[C@@]13C)C(=O)OC4)[C@@H]2OC(=O)[C@@H](N)Cc1c[nH]c2ccccc12	Active

System: MIA PaCa-2
Assay: Cytotoxicity against human MIA PaCa-2 cells assessed as reduction in cell viability by MTT assay
Assay type: functional, cell-based
Details: not given

SMILES	Activity
CC(C)[C@H](N)C(=O)O[C@@H]1[C@@]2(C(C)C)O[C@H]2[C@@H]2O[C@]23[C@]12O[C@H]2C[C@H]1C2=C(CC[C@@]13C)C(=O)OC2	Active
CC(C)[C@]12O[C@H]1[C@@H]1O[C@]13[C@]1(O[C@H]1C[C@H]1C4=C(CC[C@@]13C)C(=O)OC4)[C@@H]2OC(=O)[C@@H](N)Cc1c[nH]c2ccccc12	Active

System: not listed separately
Assay: Cytotoxicity against human HPDE cells assessed as reduction in cell viability by MTT assay
Assay type: cell-based
Details: not given

SMILES	Activity
CC(C)[C@H](N)C(=O)O[C@@H]1[C@@]2(C(C)C)O[C@H]2[C@@H]2O[C@]23[C@]12O[C@H]2C[C@H]1C2=C(CC[C@@]13C)C(=O)OC2	Non-Toxic
CC(C)[C@]12O[C@H]1[C@@H]1O[C@]13[C@]1(O[C@H]1C[C@H]1C4=C(CC[C@@]13C)C(=O)OC4)[C@@H]2OC(=O)[C@@H](N)Cc1c[nH]c2ccccc12	Non-Toxic

System: not listed separately
Assay: Drug uptake in human MIA PaCa-2 cells
Assay type: ADME, cell-based
Details: not given

SMILES	Drug uptake
CC(C)[C@H](N)C(=O)O[C@@H]1[C@@]2(C(C)C)O[C@H]2[C@@H]2O[C@]23[C@]12O[C@H]2C[C@H]1C2=C(CC[C@@]13C)C(=O)OC2	Active
CC(C)[C@]12O[C@H]1[C@@H]1O[C@]13[C@]1(O[C@H]1C[C@H]1C4=C(CC[C@@]13C)C(=O)OC4)[C@@H]2OC(=O)[C@@H](N)Cc1c[nH]c2ccccc12	Active

System: not listed separately
Assay: Stability in rat liver homogenate assessed as half life
Assay type: ADME, tissue-based
Details: not given

SMILES	half-life [h]
CC(C)[C@H](N)C(=O)O[C@@H]1[C@@]2(C(C)C)O[C@H]2[C@@H]2O[C@]23[C@]12O[C@H]2C[C@H]1C2=C(CC[C@@]13C)C(=O)OC2	6
CC(C)[C@]12O[C@H]1[C@@H]1O[C@]13[C@]1(O[C@H]1C[C@H]1C4=C(CC[C@@]13C)C(=O)OC4)[C@@H]2OC(=O)[C@@H](N)Cc1c[nH]c2ccccc12	6

System: not listed separately
Assay: Stability in human ASPC1 cells homogenate assessed as half life
Assay type: ADME, cell-based
Details: ASPC1 cell homogenate

SMILES	half-life [h]
CC(C)[C@H](N)C(=O)O[C@@H]1[C@@]2(C(C)C)O[C@H]2[C@@H]2O[C@]23[C@]12O[C@H]2C[C@H]1C2=C(CC[C@@]13C)C(=O)OC2	8
CC(C)[C@]12O[C@H]1[C@@H]1O[C@]13[C@]1(O[C@H]1C[C@H]1C4=C(CC[C@@]13C)C(=O)OC4)[C@@H]2OC(=O)[C@@H](N)Cc1c[nH]c2ccccc12	8

System: not listed separately
Assay: Drug uptake in human ASPC1 cells in presence of lysine
Assay type: ADME, cell-based
Details: not given

SMILES	Drug uptake
CC(C)[C@H](N)C(=O)O[C@@H]1[C@@]2(C(C)C)O[C@H]2[C@@H]2O[C@]23[C@]12O[C@H]2C[C@H]1C2=C(CC[C@@]13C)C(=O)OC2	Not Active
CC(C)[C@]12O[C@H]1[C@@H]1O[C@]13[C@]1(O[C@H]1C[C@H]1C4=C(CC[C@@]13C)C(=O)OC4)[C@@H]2OC(=O)[C@@H](N)Cc1c[nH]c2ccccc12	Not Active

System: not listed separately
Assay: Drug uptake in human ASPC1 cells
Assay type: ADME, cell-based
Details: not given

SMILES	Drug uptake
CC(C)[C@H](N)C(=O)O[C@@H]1[C@@]2(C(C)C)O[C@H]2[C@@H]2O[C@]23[C@]12O[C@H]2C[C@H]1C2=C(CC[C@@]13C)C(=O)OC2	Active
CC(C)[C@]12O[C@H]1[C@@H]1O[C@]13[C@]1(O[C@H]1C[C@H]1C4=C(CC[C@@]13C)C(=O)OC4)[C@@H]2OC(=O)[C@@H](N)Cc1c[nH]c2ccccc12	Active

System: ASPC1
Assay: Cytotoxicity against human ASPC1 cells assessed as reduction in cell viability by MTT assay
Assay type: functional, cell-based
Details: not given

SMILES	Activity
CC(C)[C@H](N)C(=O)O[C@@H]1[C@@]2(C(C)C)O[C@H]2[C@@H]2O[C@]23[C@]12O[C@H]2C[C@H]1C2=C(CC[C@@]13C)C(=O)OC2	Active
CC(C)[C@]12O[C@H]1[C@@H]1O[C@]13[C@]1(O[C@H]1C[C@H]1C4=C(CC[C@@]13C)C(=O)OC4)[C@@H]2OC(=O)[C@@H](N)Cc1c[nH]c2ccccc12	Active
